Patent US6515000B2, “Fungicidal mixtures based on amide compounds” (BASF Aktiengesellschaft, priority 2000, dated 2003)

Tests used:
[1] = tested on: mildew of cucumber (Sphaerotheca fuliginea); assay: Action against mildew of cucumber (protective spray, cucumber seedlings cv. Chinesische Schlange); type: in vivo; settings: individual active ingredient, 7 days
Experimental: (§1) The active compounds, separately or together, are formulated as a 10% emulsion in a mixture of 70% by weight of cyclohexanone, 20% by weight of Nekanil® LN (Lutensol® AP6, wetting agent having emulsifying and dispersing action based on ethoxylated alkylphenols) and 10% by weight of Emulphor® EL (Emulan® EL, emulsifier based on ethoxylated fatty alcohols) and diluted with water to the desired concentration.
(§2) Evaluation is carried out by determining the infected leaf areas in percent. These percentages are converted into efficacies. The efficacy (W) is calculated as follows using Abbot's formula: […]
The expected efficacies of the mixtures of the active compounds were determined using Colby's formula [R. S. Colby, Weeds 15, 20-22 (1967)] and compared with the observed efficacies. […]
Leaves of cucumber seedlings of the cultivar “Chinesische Schlange” which had been grown in pots were, at the cotyledon stage, sprayed to run-off point with an aqueous preparation of active ingredient which had been prepared using a stock solution made of 10% active ingredient, 85% of cyclohexanone and 5% of emulsifier. […] The extent of the mildew development was then determined visually in % infection of the cotyledon surface. […]

[2] = tested on: mildew of wheat (Blumeria graminis forma specialis tritici); assay: Action against mildew of wheat (protective spray, wheat seedlings cv. Kanzler); type: in vivo; settings: individual active ingredient, 7 days after inoculation
Experimental: as §1, §2
α corresponds to the fungal infection of the treated plants in % and β corresponds to the fungal infection of the untreated (control) plants in % An efficacy of 0 means that the infection level of the treated plants corresponds to that of the untreated control plants; an efficacy of 100 means that the treated plants were not infected.
The expected efficacies of the mixtures of the active compounds were determined using Colby's formula [R. S. Colby, Weeds 15, 20-22 (1967)] and compared with the observed efficacies.
Colby's formula: E×x+y−x·y/100
E expected efficacy, expressed in % of the untreated control, when using the mixture of the active compounds A and B at the concentrations a and b x efficacy, expressed in % of the untreated control, when using active compound A at the concentration a y efficacy, expressed in % of the untreated control, when using active compound B at the concentration b.
Leaves of wheat seedlings of the cultivar “Kanzler”, grown in pots, were sprayed to run-off point with an aqueous formulation of active ingredient which had been prepared using a stock solution comprising 10% of active ingredient, 85% of cyclohexanone and 5% of emulsifier, and 24 hours after the spray coating had dried on, the leaves were dusted with spores of mildew of wheat (Blumeria graminis forma specialis tritici). […] After 7 days, the extent of the development of the mildew was determined visually in % infection of the entire leaf surface. […]

Substance: dinocap [dinocap (II)]
- Efficacy in % of the untreated control ([1]; 6 ppm in the spray liquor): 10%
- Efficacy in % of the untreated control ([1]; 12.5 ppm in the spray liquor): 20%
- Efficacy in % of the untreated control ([2]; 6 ppm in the spray liquor): 10%
- Efficacy in % of the untreated control ([2]; 12.5 ppm in the spray liquor): 10%
- Efficacy in % of the untreated control ([2]; 50 ppm in the spray liquor): 70%
